# According to patent US20240400515A1, “NPM1-DEPENDING LEUKEMIA AGENTS” (UNIVERSIDAD COMPLUTENSE DE MADRID, priority 2021, published 2024):
# “Also recorded” adds a separate entry of the source.
# Legend:
# [1] = Pharmacokinetic study in mice; assay type: in vivo, mouse; set-up: in-vivo diffusion: dose or concentration left out as unconfirmed; settings: FIG. 5A
# Procedure: Pharmacokinetic studies for compound Ic were performed. […] The area of the molecular peak allows to calculate the concentration of the compound present in mice serum at each time.
# [2] = tested on: healthy donor bone marrow cells; test: Viability assay in CD34+ healthy donor bone marrow cells; assay type: cell-based; settings: Homo sapiens, Bone marrow cell, FIG. 2, read-out: IC50 healthy donors
# Procedure: (§1) The sensitivity of the compounds on OCI-AML3 (NPM1 C+) and MOLM13 (NPM1 C−) cell viability was assessed as an in-vitro acute myeloid leukemia (AML) model. Briefly, cells were seeded at a density of 2×10^4 cells/100 μL/well in 96-well plates. Cell lines were treated for 24 h with the test compound diluted in DMSO at the concentration of 5 μM or vehicle (DMSO). Then, 10 μL of WST-1 solution ((2-(4-iodophenyl)-3-(4-nitrophenyl)-5-(2,4-disulfophenyl)-2H-tetrazolium monosodium salt, Merck) were added and the cells were incubated for 4 h at 37° C. The absorbance was measured at 450 nm using an Asys UVM 340 microplate reader (Biochrom Ltd., Cambridge, UK). The background absorbance of blank wells containing only medium was subtracted from each test well. The data were reported as viability percentage relative to vehicle, obtained from two or three independent experiments performed in triplicate (Table 1).
# (§2) Primary cells from AML bone marrow patients CD34+ were isolated by anti-CD34+ microbeads (Miltenyi Biotech) from bone marrow of healthy donors and AML patients. Briefly, bone marrow samples were collected from AML and healthy patient pelvic bone, and were subjected to Ficoll-Paque density gradient separation to isolate mononuclear cells. […]
# [3] = tested on: AML primary cells NPM1 WT; test: Viability assay in primary CD34+ cells from AML patients, NPM1 WT; assay type: cell-based; settings: Homo sapiens, FIG. 2
# Procedure: as §1, §2
# [4] = tested on: AML primary cells NPM1 mut; test: Viability assay in primary CD34+ cells from AML patients, NPM1 mut; assay type: cell-based; settings: Homo sapiens, FIG. 2
# Procedure: as §1, §2
# [5] = tested on: OCI-AML3-ffLuc-GFP cells; test: AML xenograft mouse model (OCI-AML3-ffLuc-GFP cells in NSG mice); assay type: in vivo; settings: ip administration for 3 weeks, NSG mice with 1 million OCI-AML3-GFP-Luc cells, versus vehicle, FIG. 5B
# Procedure: An AML xenograft mouse model was used for the study of in vivo efficacy. Female 6-8 week-old NOD.Cg-Prkdcscid II2rgtm1WjI/SzJ (NSG) mice (Vivotecnia, Madrid, Spain) were inoculated intravenously by tail vein injection with OCI-AML3-ffLuc-GFP cells (1×10^6). The animal experiment was performed according to the guidelines of the Institutional Animal Care and Use Committees of the Comunidad de Madrid, Spain, under approved protocol (PROEX 023/17). Four days later, mice were randomized into three groups of 10 animals: the first group received intraperitoneal injections of vehicle (0.9% saline solution) five days a week; the second group received 25 mg/kg of compound Ic intraperitoneally five times a week for four weeks; the third group received intraperitoneal injections of 50 mg/kg of compound Ic five times weekly for three weeks. Mice were monitored for tumor burden, distribution and engraftment every week by IVIS whole-body bioluminescence imaging. Bioimaging of […] burden in vivo was performed by IVIS Imaging system (Caliper Life Science). Before performing, Luciferin (D-luciferin monosodium salt, Thermofisher) was prepared in PBS and 150 mg/kg of Luciferin was injected i.p.; after 10 min, luminescence signal can be detected. The signal data was analyzed by the Living Image 4.2 (Caliper Life Science) software.
# [6] = tested on: OCI-AML3 (NPM1 C+); test: Viability assay (WST-1) in OCI-AML3 cell line; assay type: cell-based; settings: Homo sapiens, OCI-AML-3, viability percentage relative to vehicle, 24 h
# Procedure: (§3) Two different acute myeloid leukemia cell lines, OCI-AML3 (NPM1 C+) and MOLM13 (NPM1 C−) were obtained from the DSMZ cell repository (Braunschweig, Germany). Cell lines were expanded and cryogenically frozen upon acquisition to establish stocks in liquid nitrogen until use. Cultured cells were maintained at 37° C. in a humidified incubator in an atmosphere of 5% CO2 and passaged every 2-3 days. RPMI media (Gibco/Life Technologies; Grand Island, NY) supplemented with 10% fetal bovine serum (FBS) (Hyclone) and 1% penicillin/streptomycin was used.
# as §1
# [7] = tested on: OCI-AML3 (NPM1 C+); test: Viability assay (WST-1) in OCI-AML3 cell line; assay type: cell-based; settings: Homo sapiens, OCI-AML-3; dose-response curve, FIG. 1
# [8] = tested on: AML primary cells; test: Colony formation unit assay in primary CD34+ cells from AML patients; assay type: cell-based; settings: Homo sapiens, 336 h; methylcellulose culture, 14 days, FIG. 3; read-out: CFU-E: IC50 AML
# Procedure: (§4) Sorted CD34^+ cells were plated in 24-well plates at a density of 3×10^4 cells per well in methylcellulose-based medium MethoCult GF H4434 (StemCell Technologies) containing stem cell factor (SCF), interleukin-3 (IL-3), erythropoietin (EPO) and granulocyte macrophage colony stimulating factor (GM-CSF). Test compound was added directly to the cells within the methylcellulose medium, and incubated at 37° C. in a humidified atmosphere in the presence of 5% CO2 for 14 days. Total cells from colonies formed were counted manually using an inverted microscope/phase contrast microscopy with trypan-blue. The data were presented as percentage of colonies or percentage of viable cells relative to DMSO, obtained from two or three independent experiments performed in duplicate.
# [9] = tested on: MOLM13 (NPM1 C−); test: Viability assay (WST-1) in MOLM13 cell line; assay type: cell-based; settings: Homo sapiens, MOLM-13; dose-response curve, FIG. 1
# [10] = tested on: MOLM13 (NPM1 C−); test: Viability assay (WST-1) in MOLM13 cell line; assay type: cell-based; settings: Homo sapiens, MOLM-13, viability percentage relative to vehicle, 24 h
# Procedure: as §3, §1
# [11] = target: T1, NPM1 cytoplasmic form (NPM1 C+) (Homo sapiens, UniProt P06748); test: Effect on NPM1 cytoplasmic form (NPM1 C+) by confocal microscopy in OCI-AML3; assay type: cell-based; settings: OCI-AML3, 10 µM, 48 h, FIG. 4
# T1 construct: endogenous in cells; host or cells: OCI-AML3 (DSMZ)
# T1 sequence (P06748 with tags, fused parts or gaps limits assumed): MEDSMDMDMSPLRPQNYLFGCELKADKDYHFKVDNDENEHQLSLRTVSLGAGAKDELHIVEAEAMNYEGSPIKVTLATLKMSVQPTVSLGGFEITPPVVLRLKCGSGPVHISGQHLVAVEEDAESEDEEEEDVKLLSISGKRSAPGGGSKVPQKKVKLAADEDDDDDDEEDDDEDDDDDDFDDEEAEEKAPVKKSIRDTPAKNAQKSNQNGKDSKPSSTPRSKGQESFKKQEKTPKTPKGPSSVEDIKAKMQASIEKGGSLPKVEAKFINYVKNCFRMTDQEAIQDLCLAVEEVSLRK
# Procedure: OCI-AML3 (NPM1 C+) cells were plated onto glass coverslips or Greiner Bio-One μClear black 96-well plate (7.5×10^4 cells per well) and treated with test compound for 48 h. Then, cells were fixed with 4% paraformaldehyde for 15 min, permeabilized with 0.1% Triton X-100 for 30 min, and blocked in 5% bovine serum albumin during 1 h at rt. Incubation with primary antibodies against NPM1 (7H10B9, NOVUS Biologicals) was carried out overnight at 4° C. Alexa-488 conjugated anti-mouse or anti-rabbit antibodies (Molecular Probes) were used for detection of the reported proteins by confocal microscopy. Nuclei were counterstained with 4′,6-diamidino-2-phenylindole (DAPI) bath. A total of 35 fields per well were acquired with a ×40 magnification lens for those samples run in the Opera HCS system (Perkin Elmer). Images were segmented using the DAPI staining and the coefficient of variation of NPM1 intensity per nucleus/cytoplasm was calculated using Definiens Developer XD software.
# [12] = tested on: healthy donor bone marrow cells; test: Colony formation unit assay in CD34+ healthy donor bone marrow cells; assay type: cell-based; settings: Homo sapiens, Bone marrow cell, 336 h; methylcellulose culture, 14 days, FIG. 3; read-out: CFU-E: IC50 healthy donors
# Procedure: as §4
smiles,measurement,setting,value
"COc1ccc([C@H]2Cc3[nH]c4ccccc4c3[C@@H](CCNCC3CC3)[C@@H]2N)cc1 [Ic, (2R,3R,4R)-4-{2-[(Cyclopropylmethyl)amino]ethyl}-2-(4-methoxyphenyl)-2,3,4,9-tetrahydro-1H-carbazol-3-amine]",levels in mouse peripheral blood,"[1]; 25 mg/kg intraperitoneal, first 6 h post-injection",200 to 600 µg/L
same,in-vivo diffusion,[1]; plasma concentration 30 minutes to 6 hours after ip administration,correct in-vivo diffusion was observed
same,IC50,[2],7.89 µM
same,IC50,[3],5.03 µM
same,IC50,[4],1240 nM
same,AML cell (tumour) infiltration,[5],Tumour infiltration decrease was observed
same,viability at 5 µM,[6],40 ± 2%
same,IC50,[7],7.59 µM
same,IC50,[8],1260 nM
same,IC50,[9],41.8 µM
same,viability at 5 µM,[10],55 ± 6%
same,Effect on NPM1 / NPM1C+ (confocal microscopy),[11],"inhibition of the NPM1 cytoplasmic form (NPM1 C+) of the protein; also recorded: deplete NPM1 in OCI-AML3, especially NPM1C+ form"
same,IC50,[12],4.6 µM
